Experimental data from PMC11167047 (Cell Death Discovery, 2024).

Columns and labels:
Assay in all cases: kinome screen (33PanQinase)
Format in all cases: biochemical
FAK = target: T1, FAK (Homo sapiens, UniProt Q05397)
T1 construct: purchased Reaction Biology Europe GmbH (formerly ProQinase)
Description: (§1) The Kinome Screening was performed by Reaction Biology Europe GmbH (http://reactionbiology.com; Freiburg i. Br., Germany).

EPHA6 = target: T2, EPHA6 (Homo sapiens, UniProt Q9UF33)
T2 construct: purchased Reaction Biology Europe GmbH (formerly ProQinase)
T2 sequence (Q9UF33 23-1036): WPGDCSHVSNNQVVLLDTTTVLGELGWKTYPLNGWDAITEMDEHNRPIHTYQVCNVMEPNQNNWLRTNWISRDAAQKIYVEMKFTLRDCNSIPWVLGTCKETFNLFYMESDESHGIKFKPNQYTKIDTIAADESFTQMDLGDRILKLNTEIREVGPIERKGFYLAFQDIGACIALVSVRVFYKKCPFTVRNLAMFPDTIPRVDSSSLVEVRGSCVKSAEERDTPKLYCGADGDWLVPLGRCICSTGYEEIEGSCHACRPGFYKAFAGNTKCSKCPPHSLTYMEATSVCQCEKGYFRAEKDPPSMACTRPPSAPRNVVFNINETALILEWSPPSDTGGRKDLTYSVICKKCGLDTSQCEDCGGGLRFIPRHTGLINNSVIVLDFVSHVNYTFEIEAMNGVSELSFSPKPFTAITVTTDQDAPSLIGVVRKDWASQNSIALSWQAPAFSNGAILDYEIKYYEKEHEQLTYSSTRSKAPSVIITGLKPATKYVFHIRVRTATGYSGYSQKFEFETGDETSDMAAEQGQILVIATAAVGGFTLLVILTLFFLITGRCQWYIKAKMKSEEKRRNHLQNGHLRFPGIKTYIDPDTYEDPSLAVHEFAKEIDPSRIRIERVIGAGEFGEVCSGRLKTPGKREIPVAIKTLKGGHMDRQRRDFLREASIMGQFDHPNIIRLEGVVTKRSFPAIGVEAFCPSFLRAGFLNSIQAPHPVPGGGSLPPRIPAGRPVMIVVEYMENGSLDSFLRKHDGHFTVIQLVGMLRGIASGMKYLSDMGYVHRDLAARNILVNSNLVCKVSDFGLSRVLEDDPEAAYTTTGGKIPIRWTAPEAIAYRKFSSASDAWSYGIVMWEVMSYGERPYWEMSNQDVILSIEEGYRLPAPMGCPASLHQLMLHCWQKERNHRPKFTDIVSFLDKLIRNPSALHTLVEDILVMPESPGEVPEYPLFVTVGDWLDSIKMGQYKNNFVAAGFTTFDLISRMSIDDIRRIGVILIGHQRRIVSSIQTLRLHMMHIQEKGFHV
Description: as §1

MKK4 = target: T3, MKK4 (Homo sapiens, UniProt P45985)
T3 construct: purchased Reaction Biology Europe GmbH (formerly ProQinase)
T3 sequence (P45985 1-399): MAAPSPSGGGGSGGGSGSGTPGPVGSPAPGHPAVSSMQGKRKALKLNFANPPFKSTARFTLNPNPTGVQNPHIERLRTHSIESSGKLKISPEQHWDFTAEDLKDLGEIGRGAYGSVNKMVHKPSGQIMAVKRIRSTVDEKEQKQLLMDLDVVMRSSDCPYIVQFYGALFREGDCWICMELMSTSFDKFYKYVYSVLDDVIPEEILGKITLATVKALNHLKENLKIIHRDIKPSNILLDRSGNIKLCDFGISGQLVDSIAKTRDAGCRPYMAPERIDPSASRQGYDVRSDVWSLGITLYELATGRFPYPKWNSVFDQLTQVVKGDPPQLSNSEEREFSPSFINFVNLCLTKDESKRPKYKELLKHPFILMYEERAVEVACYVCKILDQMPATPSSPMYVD
Description: as §1

EPHB3 = target: T4, EPHB3 (Homo sapiens, UniProt P54753)
T4 construct: purchased Reaction Biology Europe GmbH (formerly ProQinase)
T4 sequence (P54753 34-998): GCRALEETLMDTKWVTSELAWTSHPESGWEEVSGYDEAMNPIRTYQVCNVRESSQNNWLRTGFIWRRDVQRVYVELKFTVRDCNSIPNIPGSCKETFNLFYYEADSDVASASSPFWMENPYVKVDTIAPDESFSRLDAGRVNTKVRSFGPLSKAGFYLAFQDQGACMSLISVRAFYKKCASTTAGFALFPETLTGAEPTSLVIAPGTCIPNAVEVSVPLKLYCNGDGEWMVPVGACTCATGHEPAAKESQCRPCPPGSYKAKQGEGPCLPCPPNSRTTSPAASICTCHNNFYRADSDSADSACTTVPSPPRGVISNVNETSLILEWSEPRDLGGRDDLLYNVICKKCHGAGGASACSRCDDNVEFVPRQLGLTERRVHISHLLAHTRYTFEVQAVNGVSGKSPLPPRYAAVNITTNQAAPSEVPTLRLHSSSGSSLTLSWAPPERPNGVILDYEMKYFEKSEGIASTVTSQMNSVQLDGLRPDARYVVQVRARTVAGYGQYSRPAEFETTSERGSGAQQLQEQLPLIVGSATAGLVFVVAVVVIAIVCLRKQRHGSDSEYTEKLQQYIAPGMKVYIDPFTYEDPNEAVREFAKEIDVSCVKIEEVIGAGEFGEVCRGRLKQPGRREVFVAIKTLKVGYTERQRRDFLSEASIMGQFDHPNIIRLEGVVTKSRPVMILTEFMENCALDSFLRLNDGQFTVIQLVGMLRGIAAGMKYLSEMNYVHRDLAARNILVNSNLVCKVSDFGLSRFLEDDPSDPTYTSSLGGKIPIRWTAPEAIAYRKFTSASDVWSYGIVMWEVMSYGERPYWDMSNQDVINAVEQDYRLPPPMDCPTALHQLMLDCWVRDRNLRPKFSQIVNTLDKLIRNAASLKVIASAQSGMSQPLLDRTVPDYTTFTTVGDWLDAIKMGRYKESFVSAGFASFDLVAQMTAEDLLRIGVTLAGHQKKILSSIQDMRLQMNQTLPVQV
Description: as §1

IRAK1 = target: T5, IRAK1 (Homo sapiens, UniProt P51617)
T5 construct: purchased Reaction Biology Europe GmbH (formerly ProQinase)
T5 sequence (P51617 whole entry): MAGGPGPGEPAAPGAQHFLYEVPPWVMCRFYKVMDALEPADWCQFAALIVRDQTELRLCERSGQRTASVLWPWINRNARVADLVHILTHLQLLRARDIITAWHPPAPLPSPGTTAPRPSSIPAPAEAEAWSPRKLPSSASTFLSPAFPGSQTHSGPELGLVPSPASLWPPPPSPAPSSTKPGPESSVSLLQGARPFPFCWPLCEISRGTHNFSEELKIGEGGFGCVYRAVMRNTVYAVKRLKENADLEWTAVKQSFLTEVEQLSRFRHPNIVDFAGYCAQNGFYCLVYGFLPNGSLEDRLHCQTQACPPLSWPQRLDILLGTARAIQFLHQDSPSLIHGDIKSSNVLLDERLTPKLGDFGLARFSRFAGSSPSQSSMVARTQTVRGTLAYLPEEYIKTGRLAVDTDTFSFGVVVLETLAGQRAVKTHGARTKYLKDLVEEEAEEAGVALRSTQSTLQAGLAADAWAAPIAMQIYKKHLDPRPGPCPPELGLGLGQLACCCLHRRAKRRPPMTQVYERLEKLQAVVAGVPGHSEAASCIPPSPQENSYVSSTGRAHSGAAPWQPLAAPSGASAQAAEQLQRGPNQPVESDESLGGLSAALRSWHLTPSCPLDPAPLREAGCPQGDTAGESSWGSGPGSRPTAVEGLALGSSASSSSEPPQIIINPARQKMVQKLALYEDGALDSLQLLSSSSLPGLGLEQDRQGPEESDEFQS
Description: as §1

WEE1 = target: T6, WEE1 (Homo sapiens, UniProt P30291)
T6 construct: purchased Reaction Biology Europe GmbH (formerly ProQinase)
T6 sequence (P30291 whole entry): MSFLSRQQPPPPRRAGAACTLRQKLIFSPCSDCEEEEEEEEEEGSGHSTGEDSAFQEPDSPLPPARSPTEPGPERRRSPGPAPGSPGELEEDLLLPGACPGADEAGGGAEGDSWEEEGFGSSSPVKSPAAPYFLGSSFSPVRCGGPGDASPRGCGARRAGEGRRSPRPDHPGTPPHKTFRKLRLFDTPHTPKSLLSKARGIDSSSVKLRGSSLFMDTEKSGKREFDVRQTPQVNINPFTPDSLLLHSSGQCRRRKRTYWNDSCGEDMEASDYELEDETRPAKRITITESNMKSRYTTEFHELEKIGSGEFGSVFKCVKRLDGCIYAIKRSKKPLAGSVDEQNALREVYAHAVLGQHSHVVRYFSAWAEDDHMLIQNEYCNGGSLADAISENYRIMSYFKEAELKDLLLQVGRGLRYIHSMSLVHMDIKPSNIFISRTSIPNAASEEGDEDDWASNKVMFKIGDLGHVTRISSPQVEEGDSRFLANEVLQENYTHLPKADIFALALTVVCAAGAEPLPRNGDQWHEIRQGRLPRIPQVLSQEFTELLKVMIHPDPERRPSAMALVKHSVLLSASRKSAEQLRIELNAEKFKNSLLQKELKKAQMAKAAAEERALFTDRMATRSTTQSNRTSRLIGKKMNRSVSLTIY
Description: as §1

T1 sequence (Q05397 whole entry): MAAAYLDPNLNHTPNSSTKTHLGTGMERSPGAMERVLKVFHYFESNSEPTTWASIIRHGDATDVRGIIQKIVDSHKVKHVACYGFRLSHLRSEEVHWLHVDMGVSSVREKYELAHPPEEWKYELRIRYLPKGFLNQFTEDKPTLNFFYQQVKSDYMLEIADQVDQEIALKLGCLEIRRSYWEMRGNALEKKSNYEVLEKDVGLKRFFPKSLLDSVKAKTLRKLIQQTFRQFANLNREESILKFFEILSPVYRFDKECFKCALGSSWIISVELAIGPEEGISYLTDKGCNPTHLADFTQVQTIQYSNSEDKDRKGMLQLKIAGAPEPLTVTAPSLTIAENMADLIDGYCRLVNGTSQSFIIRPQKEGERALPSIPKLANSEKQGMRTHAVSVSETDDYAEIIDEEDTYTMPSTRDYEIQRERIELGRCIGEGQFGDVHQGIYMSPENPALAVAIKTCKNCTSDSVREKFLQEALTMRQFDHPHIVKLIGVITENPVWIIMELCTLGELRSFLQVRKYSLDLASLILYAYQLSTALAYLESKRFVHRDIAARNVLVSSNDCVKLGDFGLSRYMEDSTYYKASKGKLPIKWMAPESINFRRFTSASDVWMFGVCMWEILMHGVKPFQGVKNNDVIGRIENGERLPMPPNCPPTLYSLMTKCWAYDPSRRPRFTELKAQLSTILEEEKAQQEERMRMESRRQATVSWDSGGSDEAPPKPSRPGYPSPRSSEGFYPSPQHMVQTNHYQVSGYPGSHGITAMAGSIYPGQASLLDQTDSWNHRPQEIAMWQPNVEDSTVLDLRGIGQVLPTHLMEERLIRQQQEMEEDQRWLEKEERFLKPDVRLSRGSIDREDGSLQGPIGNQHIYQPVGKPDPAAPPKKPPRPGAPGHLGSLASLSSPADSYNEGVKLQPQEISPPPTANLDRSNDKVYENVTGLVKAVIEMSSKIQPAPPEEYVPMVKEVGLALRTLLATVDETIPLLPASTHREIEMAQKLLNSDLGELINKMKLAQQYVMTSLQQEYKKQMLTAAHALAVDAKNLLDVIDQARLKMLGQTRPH

SMILES	residual kinase activity (FAK; 0.03 µM)	residual kinase activity (FAK; 0.3 µM)	residual kinase activity (EPHA6; 0.03 µM)	residual kinase activity (EPHA6; 0.3 µM)	residual kinase activity (MKK4; 0.03 µM)	residual kinase activity (MKK4; 0.3 µM)	residual kinase activity (EPHB3; 0.03 µM)	residual kinase activity (EPHB3; 0.3 µM)	residual kinase activity (IRAK1; 0.03 µM)	residual kinase activity (IRAK1; 0.3 µM)	residual kinase activity (WEE1; 0.03 µM)	residual kinase activity (WEE1; 0.3 µM)	residual kinase activity (FAK; 3 µM)	residual kinase activity (EPHA6; 3 µM)	residual kinase activity (MKK4; 3 µM)	residual kinase activity (EPHB3; 3 µM)	residual kinase activity (IRAK1; 3 µM)	residual kinase activity (WEE1; 3 µM)
COc1ccnc2[nH]cc(-c3cc(N)nc(N)c3)c12 [meriolin 16]	102 % of control	89 % of control	98 % of control	105 % of control	86 % of control	66 % of control	101 % of control	99 % of control	95 % of control	76 % of control	80 % of control	99 % of control						
c1ccc(CNc2cc(-c3c[nH]c4ncccc34)ccn2)cc1 [meriolin 36]		85 % of control		101 % of control		45 % of control		91 % of control		49 % of control		72 % of control	60 % of control	65 % of control	9 % of control	67 % of control	9 % of control	37 % of control
